Data as given in patent US12209102B2, “Heterocyclic compounds and uses thereof” (Kumquat Biosciences Inc., priority 2022, dated 2025).

Experiments:
[1] = system: GP2D cells; experiment: Ras cellular assay, growth of cells with K-Ras G12D mutation (CellTiter-Glo); format: cell-based; conditions: cell growth, Example 9, G12D mutation, read-out: IC50 against GP2D cells
[2] = system: A549 cells; experiment: Ras cellular assay, growth of cells with K-Ras G12S mutation (CellTiter-Glo); format: cell-based; conditions: Homo sapiens, cell growth, Example 9, G12S mutation, read-out: IC50 against A549 cells
Summary of the method: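 A549 cells (K-Ras G12S) in RPMI-1640 with 10% heat-inactivated FBS, seeded e.g. 800 per well in standard or ultra-low-attachment 384-well plates, treated next day with a dilution series (e.g. 10-point, 3-fold). Viability by CellTiter-Glo luminescence about 6 days later; IC50 from four-parameter fit.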

[3] = system: SW620 cells; experiment: Ras cellular assay, growth of cells with K-Ras G12V mutation (CellTiter-Glo); format: cell-based; conditions: Homo sapiens, SW-620; cell growth, Example 9, G12V mutation; read-out: IC50 against SW620 cells
Summary of the method: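 SW620 (K-Ras G12V) cells, e.g. 800/well in RPMI-1640 with 10% heat-inactivated FBS on standard or ultra-low attachment plates, were dosed the day after plating with e.g. a 10-point 3-fold series. Viability by CellTiter-Glo luminescence about 6 days later; IC50 from four-parameter fit.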

[4] = molecular target: T1, K-Ras G12S (Homo sapiens, UniProt P01116, G12S); experiment: HTRF resonance energy transfer assay, K-Ras G12S / SOS1 interaction; format: biochemical; conditions: HTRF assay of Example 5; read-out: IC50 against K-Ras G12S
T1 construct: made in house; host or cells: E. coli BL21 (DE3)
Summary of the method: (§1)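 Read-out: HTRF 665/620 nm ratio (excitation 337 nm) after roughly 10 min or longer incubation, used to derive IC50. Donor anti-GST-Eu on GST-K-Ras; acceptor anti-6His-XL665 on His-hSOS1. Duplicate dose series from 10 μM down to 0.01 μM.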

[5] = molecular target: T2, K-Ras WT (Homo sapiens, UniProt P01116); experiment: HTRF resonance energy transfer assay, K-Ras WT / SOS1 interaction; format: biochemical; conditions: HTRF assay of Example 5; read-out: IC50 against K-Ras WT
T2 construct: made in house; host or cells: E. coli BL21 (DE3)
Summary of the method: as §1

[6] = molecular target: T3, K-Ras G12D (Homo sapiens, UniProt P01116, G12D); experiment: HTRF resonance energy transfer assay, K-Ras G12D / SOS1 interaction; format: biochemical; conditions: HTRF assay of Example 5; read-out: IC50 against K-Ras G12D
T3 construct: made in house; host or cells: E. coli BL21 (DE3)
Summary of the method: as §1

[7] = molecular target: T4, K-Ras G12V (Homo sapiens, UniProt P01116, G12V); experiment: HTRF resonance energy transfer assay, K-Ras G12V / SOS1 interaction; format: biochemical; conditions: HTRF assay of Example 5; read-out: IC50 against K-Ras G12V
T4 construct: made in house; host or cells: E. coli BL21 (DE3)
Summary of the method: as §1

T4 sequence (P01116 1-188 isoform P01116-2 G12V): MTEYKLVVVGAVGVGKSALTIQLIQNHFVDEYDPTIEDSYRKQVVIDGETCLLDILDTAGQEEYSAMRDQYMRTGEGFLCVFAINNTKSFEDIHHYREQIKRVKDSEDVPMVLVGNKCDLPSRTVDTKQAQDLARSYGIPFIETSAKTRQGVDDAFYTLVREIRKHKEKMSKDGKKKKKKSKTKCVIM
T1 sequence (P01116 1-188 isoform P01116-2 G12S): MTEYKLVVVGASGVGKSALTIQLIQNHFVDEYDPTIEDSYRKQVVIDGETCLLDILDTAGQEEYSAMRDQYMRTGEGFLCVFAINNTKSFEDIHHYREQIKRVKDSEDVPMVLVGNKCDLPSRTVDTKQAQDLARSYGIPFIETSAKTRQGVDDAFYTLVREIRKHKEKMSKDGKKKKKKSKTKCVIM
T3 sequence (P01116 1-188 isoform P01116-2 G12D): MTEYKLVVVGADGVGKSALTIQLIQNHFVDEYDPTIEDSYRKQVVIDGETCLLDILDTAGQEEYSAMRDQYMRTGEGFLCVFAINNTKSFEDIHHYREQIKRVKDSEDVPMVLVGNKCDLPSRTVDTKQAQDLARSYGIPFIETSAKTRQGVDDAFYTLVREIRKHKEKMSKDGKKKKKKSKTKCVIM
T2 sequence (P01116 1-188 isoform P01116-2): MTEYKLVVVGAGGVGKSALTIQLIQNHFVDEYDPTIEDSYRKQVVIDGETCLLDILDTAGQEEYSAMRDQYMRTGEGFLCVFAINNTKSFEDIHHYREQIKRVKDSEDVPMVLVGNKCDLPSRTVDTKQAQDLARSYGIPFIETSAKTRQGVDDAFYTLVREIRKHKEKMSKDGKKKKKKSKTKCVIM

Row | Compound | IC50 [2] [µM] | IC50 [3] [µM] | IC50 [4] [nM] | IC50 [5] [nM] | IC50 [6] [nM] | IC50 [7] [nM] | IC50 [1] [nM]
1 | N#Cc1c(N)sc2c(F)ccc(-c3c(Cl)c4c5c(nc(OC[C@@]67CCCN6C[C@H](F)C7)nc5c3F)N(C3CCOC3)CC(CO)O4)c12 (stereo partly drawn) [Compound 681, 2-amino-4-(8-chloro-10-fluoro-2-(((2R,7aS)-2-fluorotetrahydro-1H-pyrrolizin-7a(5H)-yl)methoxy)-6-(hydroxymethyl)-4-(tetrahydrofuran-3-yl)-5,6-dihydro-4H-[1,4]oxazepino[5,6,7-de]quinazolin-9-yl)-7-fluorobenzo[b]thiophene-3-carbonitrile] | < 5 | < 5 | < 100 | < 100 | < 100 | < 100 | < 500
2 | N#Cc1c(N)sc2c(F)ccc(-c3c(Cl)c4c5c(nc(OC[C@@]67CCCN6C[C@H](F)C7)nc5c3F)N(C3CCOC3)CCO4)c12 (stereo partly drawn) [Compound 688, 2-amino-4-(8-chloro-10-fluoro-2-(((2R,7aS)-2-fluorotetrahydro-1H-pyrrolizin-7a(5H)-yl)methoxy)-4-(tetrahydrofuran-3-yl)-5,6-dihydro-4H-[1,4]oxazepino[5,6,7-de]quinazolin-9-yl)-7-fluorobenzo[b]thiophene-3-carbonitrile] | < 5 | < 5 | < 100 | < 100 | < 100 | < 100 | < 500
3 | N#Cc1c(N)sc2c(F)ccc(-c3c(Cl)c4c5c(nc(OC[C@@]67CCCN6C[C@H](F)C7)nc5c3F)N(C3CC5(CCN(C=O)C5)C3)CCO4)c12 (stereo partly drawn) [Compound 698, 2-amino-4-(8-chloro-10-fluoro-2-(((2R,7aS)-2-fluorotetrahydro-1H-pyrrolizin-7a(5H)-yl)methoxy)-4-(6-formyl-6-azaspiro[3.4]octan-2-yl)-5,6-dihydro-4H-[1,4]oxazepino[5,6,7-de]quinazolin-9-yl)-7-fluorobenzo[b]thiophene-3-carbonitrile] | < 5 | < 5 | < 100 | < 100 | < 100 | < 100 | < 500
4 | N#Cc1c(N)sc2c(F)ccc(-c3c(Cl)c4c5c(nc(OC[C@@]67CCCN6C[C@H](F)C7)nc5c3F)N(C3CCN(C(=O)C[C@@H]5CCOC5)C3)CCO4)c12 (stereo partly drawn) [Compound 699, 2-amino-4-(8-chloro-10-fluoro-2-(((2R,7aS)-2-fluorotetrahydro-1H-pyrrolizin-7a(5H)-yl)methoxy)-4-(1-(2-((S)-tetrahydrofuran-3-yl)acetyl)pyrrolidin-3-yl)-5,6-dihydro-4H-[1,4]oxazepino[5,6,7-de]quinazolin-9-yl)-7-fluorobenzo[b]thiophene-3-carbonitrile] | < 5 | < 5 | < 100 | < 100 | < 100 | < 100 | < 500
5 | N#CCC1COc2c(Cl)c(-c3ccc(F)c4sc(N)c(C#N)c34)c(F)c3nc(OC[C@@]45CCCN4C[C@H](F)C5)nc(c23)N1CC(F)F (stereo partly drawn) [Compound 700, 2-amino-4-(8-chloro-5-(cyanomethyl)-4-(2,2-difluoroethyl)-10-fluoro-2-(((2R,7aS)-2-fluorotetrahydro-1H-pyrrolizin-7a(5H)-yl)methoxy)-5,6-dihydro-4H-[1,4]oxazepino[5,6,7-de]quinazolin-9-yl)-7-fluorobenzo[b]thiophene-3-carbonitrile] | < 5 | < 5 | < 100 | < 100 | < 100 | < 100 | < 500
6 | N#Cc1c(N)sc2c(F)ccc(-c3c(Cl)c4c5c(nc(OC[C@@]67CCCN6C[C@H](F)C7)nc5c3F)N(CC(F)F)C(CC(F)F)CO4)c12 (stereo partly drawn) [Compound 701, 2-amino-4-(8-chloro-4,5-bis(2,2-difluoroethyl)-10-fluoro-2-(((2R,7aS)-2-fluorotetrahydro-1H-pyrrolizin-7a(5H)-yl)methoxy)-5,6-dihydro-4H-[1,4]oxazepino[5,6,7-de]quinazolin-9-yl)-7-fluorobenzo[b]thiophene-3-carbonitrile] | < 5 | < 5 | < 100 | < 100 | < 100 | < 100 | < 500
7 | N#CCCC1CN(CC(F)F)c2nc(OC[C@@]34CCCN3C[C@H](F)C4)nc3c(F)c(-c4ccc(F)c5sc(N)c(C#N)c45)c(Cl)c(c23)O1 (stereo partly drawn) [Compound 704, 2-amino-4-(8-chloro-6-(2-cyanoethyl)-4-(2,2-difluoroethyl)-10-fluoro-2-(((2R,7aS)-2-fluorotetrahydro-1H-pyrrolizin-7a(5H)-yl)methoxy)-5,6-dihydro-4H-[1,4]oxazepino[5,6,7-de]quinazolin-9-yl)-7-fluorobenzo[b]thiophene-3-carbonitrile] | < 5 | < 5 | < 100 | < 100 | < 100 | < 100 | < 500
8 | N#Cc1c(N)sc2c(F)ccc(-c3c(Cl)c4c5c(nc(OC[C@@]67CCCN6C[C@H](F)C7)nc5c3F)N(C3CCN(C(=O)[C@H]5CCCO5)C3)CCO4)c12 (stereo partly drawn) [Compound 705, 2-amino-4-(8-chloro-10-fluoro-2-(((2R,7aS)-2-fluorotetrahydro-1H-pyrrolizin-7a(5H)-yl)methoxy)-4-(1-((R)-tetrahydrofuran-2-carbonyl)pyrrolidin-3-yl)-5,6-dihydro-4H-[1,4]oxazepino[5,6,7-de]quinazolin-9-yl)-7-fluorobenzo[b]thiophene-3-carbonitrile] | < 5 | < 5 | < 100 | < 100 | < 100 | < 100 | < 500

The next lines start with results.

Row | IC50 [2] [µM] | IC50 [3] [µM] | IC50 [4] [nM] | IC50 [5] [nM] | IC50 [6] [nM] | IC50 [7] [nM] | Compound | IC50 [1] [nM]
9 | < 5 | < 5 | < 100 | < 100 | < 100 | < 100 | C[C@H]1CN(CCC(F)F)c2nc(OC[C@@]34CCCN3C[C@H](F)C4)nc3c(F)c(-c4ccc(F)c5sc(N)c(C#N)c45)c(Cl)c(c23)O1 [Compound 664, 2-amino-4-((6S)-8-chloro-4-(3,3-difluoropropyl)-10-fluoro-2-(((2R,7aS)-2-fluorotetrahydro-1H-pyrrolizin-7a(5H)-yl)methoxy)-6-methyl-5,6-dihydro-4H-[1,4]oxazepino[5,6,7-de]quinazolin-9-yl)-7-fluorobenzo[b]thiophene-3-carbonitrile] | < 500
10 | < 5 | < 5 | < 100 | < 100 | < 100 | < 100 | C[C@H]1CN(C2CCN(C(=O)C(F)F)C2)c2nc(OC[C@@]34CCCN3C[C@H](F)C4)nc3c(F)c(-c4ccc(F)c5sc(N)c(C#N)c45)c(Cl)c(c23)O1 (stereo partly drawn) [Compound 665, 2-amino-4-((6S)-8-chloro-4-(1-(2,2-difluoroacetyl)pyrrolidin-3-yl)-10-fluoro-2-(((2R,7aS)-2-fluorotetrahydro-1H-pyrrolizin-7a(5H)-yl)methoxy)-6-methyl-5,6-dihydro-4H-[1,4]oxazepino[5,6,7-de]quinazolin-9-yl)-7-fluorobenzo[b]thiophene-3-carbonitrile] | < 500
11 | < 5 | < 5 | < 100 | < 100 | < 100 | < 100 | N#Cc1c(N)sc2c(F)ccc(-c3c(Cl)c4c5c(nc(OC[C@@]67CCCN6C[C@H](F)C7)nc5c3F)N(CC3(O)CCC3)CCO4)c12 [Compound 667, 2-amino-4-(8-chloro-10-fluoro-2-(((2R,7aS)-2-fluorotetrahydro-1H-pyrrolizin-7a(5H)-yl)methoxy)-4-((1-hydroxycyclobutyl)methyl)-5,6-dihydro-4H-[1,4]oxazepino[5,6,7-de]quinazolin-9-yl)-7-fluorobenzo[b]thiophene-3-carbonitrile] | < 500
12 | < 5 | < 5 | < 100 | < 100 | < 100 | < 100 | COCC(C)N1CCOc2c(Cl)c(-c3ccc(F)c4sc(N)c(C#N)c34)c(F)c3nc(OC[C@@]45CCCN4C[C@H](F)C5)nc1c23 (stereo partly drawn) [Compound 670, 2-amino-4-(8-chloro-10-fluoro-2-(((2R,7aS)-2-fluorotetrahydro-1H-pyrrolizin-7a(5H)-yl)methoxy)-4-(1-methoxypropan-2-yl)-5,6-dihydro-4H-[1,4]oxazepino[5,6,7-de]quinazolin-9-yl)-7-fluorobenzo[b]thiophene-3-carbonitrile] | < 500
